Source: patent US20250353891A1 (MEDIMMUNE LIMITED, priority 2022, published 2025)
Starred links: 1 amine or outer side, 2 acyl side, 3 side chain; linkers in the order of their positions; H or OH if unused. Non-standard residues stand in square brackets, D forms with d. Residues, ends and D or L forms follow the SMILES beside them. Groups on a side chain read outwards from the residue. *: point of attachment. C20 diacid = O=C(O)CCCCCCCCCCCCCCCCCCC(=O)*; C18 diacid = O=C(O)CCCCCCCCCCCCCCCCC(=O)*; γGlu = O=C(O)[C@H](CCC(=O)[*:2])N[*:1]; αMeF = C[C@](N)(Cc1ccccc1)C(=O)O; AEEA = NCCOCCOCC(=O)O; Aib = CC(C)(N)C(=O)O

Assays:
[1] = biological target: human glucagon receptor (hGCGR) (Homo sapiens, UniProt P47871); assay: cAMP production (HTRF) in CHO cells expressing hGCGR; format: cell-based; set-up: expressed in transfected cells; conditions: Table 6, peptides modified at position 17; cAMP in CHO hGCGR cells; geometric mean; read-out: hGluc-R EC50
Sequence of human glucagon receptor (hGCGR) (P47871 26-477): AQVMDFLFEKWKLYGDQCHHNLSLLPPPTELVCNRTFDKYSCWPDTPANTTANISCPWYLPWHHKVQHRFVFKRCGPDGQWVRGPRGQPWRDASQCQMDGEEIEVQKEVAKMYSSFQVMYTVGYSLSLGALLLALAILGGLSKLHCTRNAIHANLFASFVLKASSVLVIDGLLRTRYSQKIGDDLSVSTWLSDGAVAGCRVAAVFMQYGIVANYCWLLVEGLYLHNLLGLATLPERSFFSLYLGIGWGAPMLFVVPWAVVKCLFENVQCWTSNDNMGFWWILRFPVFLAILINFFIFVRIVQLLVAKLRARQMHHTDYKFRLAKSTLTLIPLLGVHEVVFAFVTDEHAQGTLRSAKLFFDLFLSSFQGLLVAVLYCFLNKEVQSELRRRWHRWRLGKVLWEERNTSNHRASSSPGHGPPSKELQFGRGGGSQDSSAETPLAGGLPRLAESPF
Method in brief: (§1)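 Read-out: HTRF cAMP (anti-cAMP cryptate donor, cAMP-d2 acceptor in conjugate/lysis buffer), converted to % Delta F and fitted by 4-parameter logistic for EC50. Cell densities were 1×10^5 cells/mL (hGLP-1R) or 2×10^5 cells/mL (hGCGR). Stimulation lasted 30 min at room temperature.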

[2] = biological target: human GLP-1 receptor (hGLP-1R) (Homo sapiens, UniProt P43220); assay: cAMP production (HTRF) in CHO cells expressing hGLP-1R; format: cell-based; set-up: expressed in transfected cells; conditions: for EC50: Table 6, peptides modified at position 17, cAMP in CHO hGLP-1R cells, geometric mean, read-out: hGLP-1R EC50; for % Relative Potency Ratio: Table 6, % GLP-1R activity relative to GLP-1 / % GlucR activity relative to glucagon
Sequence of human GLP-1 receptor (hGLP-1R) (P43220 24-463): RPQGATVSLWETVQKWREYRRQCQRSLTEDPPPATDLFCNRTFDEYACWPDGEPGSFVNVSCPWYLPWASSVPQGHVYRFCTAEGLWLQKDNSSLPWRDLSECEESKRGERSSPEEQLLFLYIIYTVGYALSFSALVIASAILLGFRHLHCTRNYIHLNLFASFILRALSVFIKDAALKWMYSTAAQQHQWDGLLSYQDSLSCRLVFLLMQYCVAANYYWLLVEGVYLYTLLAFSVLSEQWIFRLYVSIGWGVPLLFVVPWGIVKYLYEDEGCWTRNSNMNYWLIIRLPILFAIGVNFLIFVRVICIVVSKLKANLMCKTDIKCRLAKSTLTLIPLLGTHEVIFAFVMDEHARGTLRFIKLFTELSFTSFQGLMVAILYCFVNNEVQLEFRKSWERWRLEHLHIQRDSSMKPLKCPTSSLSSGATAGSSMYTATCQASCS
Method in brief: as §1

Compound | EC50 [1] [nM] | EC50 [2] [nM] | % Relative Potency Ratio [2]
CC(C)C[C@H](NC(=O)[C@H](Cc1c[nH]c2ccccc12)NC(=O)[C@H](CCCNC(=N)N)NC(=O)[C@@H](NC(=O)[C@H](Cc1ccccc1)NC(=O)[C@H](CC(=O)O)NC(=O)[C@H](CCC(N)=O)NC(=O)[C@H](C)NC(=O)[C@H](CCCNC(=N)N)NC(=O)[C@H](CCCCNC(=O)COCCOCCNC(=O)COCCOCCNC(=O)CC[C@H](NC(=O)CCCCCCCCCCCCCCCCC(=O)O)C(=O)O)NC(=O)[C@@H](NC(=O)[C@H](CC(=O)O)NC(=O)[C@H](CC(C)C)NC(=O)[C@](C)(Cc1ccccc1)NC(=O)[C@H](CCCCN)NC(=O)[C@H](CO)NC(=O)[C@@H](NC(=O)[C@H](CC(=O)O)NC(=O)[C@H](CO)NC(=O)[C@@H](NC(=O)[C@H](Cc1ccccc1)NC(=O)[C@@H](NC(=O)CNC(=O)[C@H](CCC(N)=O)NC(=O)C(C)(C)NC(=O)[C@@H](N)Cc1c[nH]cn1)[C@@H](C)O)[C@@H](C)O)C(C)C)[C@@H](C)O)C(C)C)C(=O)N[C@@H](CC(C)C)C(=O)N[C@@H](CCC(=O)O)C(=O)NC(C)(C)C(=O)N[C@@H](CCCCN)C(N)=O [Peptide 478] (H-H[Aib]QGTFTSDVSK[αMeF]LDTK([AEEA-AEEA-γGlu-C18 diacid])RAQDFVRWLLE[Aib]K-NH2) | 0.19 | 0.00918 | 40.9
CC(C)C[C@H](NC(=O)[C@H](Cc1c[nH]c2ccccc12)NC(=O)[C@H](CCCNC(=N)N)NC(=O)[C@@H](NC(=O)[C@H](Cc1ccccc1)NC(=O)[C@H](CC(=O)O)NC(=O)[C@H](CCC(N)=O)NC(=O)[C@H](C)NC(=O)[C@H](CCCNC(=N)N)NC(=O)[C@H](CCCCNC(=O)COCCOCCNC(=O)COCCOCCNC(=O)CC[C@H](NC(=O)CCCCCCCCCCCCCCCCCCC(=O)O)C(=O)O)NC(=O)[C@@H](NC(=O)[C@H](CC(=O)O)NC(=O)[C@H](CC(C)C)NC(=O)[C@](C)(Cc1ccccc1)NC(=O)[C@H](CCCCN)NC(=O)[C@H](CO)NC(=O)[C@@H](NC(=O)[C@H](CC(=O)O)NC(=O)[C@H](CO)NC(=O)[C@@H](NC(=O)[C@H](Cc1ccccc1)NC(=O)[C@@H](NC(=O)CNC(=O)[C@H](CCC(N)=O)NC(=O)C(C)(C)NC(=O)[C@@H](N)Cc1c[nH]cn1)[C@@H](C)O)[C@@H](C)O)C(C)C)[C@@H](C)O)C(C)C)C(=O)N[C@@H](CC(C)C)C(=O)N[C@@H](CCC(=O)O)C(=O)NC(C)(C)C(=O)N[C@@H](CCCCN)C(N)=O [Peptide 479] (H-H[Aib]QGTFTSDVSK[αMeF]LDTK([AEEA-AEEA-γGlu-C20 diacid])RAQDFVRWLLE[Aib]K-NH2; N-terminus assumed) | 0.207 | 0.0342 | 12.0
CC(C)C[C@H](NC(=O)[C@H](Cc1c[nH]c2ccccc12)NC(=O)[C@H](CCC(N)=O)NC(=O)[C@@H](NC(=O)[C@H](Cc1ccccc1)NC(=O)[C@H](CC(=O)O)NC(=O)[C@H](CCCNC(=N)N)NC(=O)[C@H](C)NC(=O)[C@H](CCCNC(=N)N)NC(=O)[C@H](CCCCNC(=O)COCCOCCNC(=O)COCCOCCNC(=O)CC[C@H](NC(=O)CCCCCCCCCCCCCCCCCCC(=O)O)C(=O)O)NC(=O)[C@@H](NC(=O)[C@H](CC(=O)O)NC(=O)[C@H](CC(C)C)NC(=O)[C@](C)(Cc1ccccc1)NC(=O)[C@H](CCCCN)NC(=O)[C@H](CO)NC(=O)[C@@H](NC(=O)[C@H](CC(=O)O)NC(=O)[C@H](CO)NC(=O)[C@@H](NC(=O)[C@H](Cc1ccccc1)NC(=O)[C@@H](NC(=O)CNC(=O)[C@H](CCC(N)=O)NC(=O)C(C)(C)NC(=O)[C@@H](N)Cc1c[nH]cn1)[C@@H](C)O)[C@@H](C)O)C(C)C)[C@@H](C)O)C(C)C)C(=O)N[C@@H](CC(C)C)C(=O)N[C@@H](CCC(=O)O)C(=O)NC(C)(C)C(=O)N[C@@H](CCCCN)C(N)=O [Peptide 481] (H-H[Aib]QGTFTSDVSK[αMeF]LDTK([AEEA-AEEA-γGlu-C20 diacid])RARDFVQWLLE[Aib]K-NH2; N-terminus assumed) | 0.35 | 0.0522 | 13.3
CC(C)C[C@H](NC(=O)[C@H](Cc1c[nH]c2ccccc12)NC(=O)[C@H](CCC(N)=O)NC(=O)[C@@H](NC(=O)[C@H](Cc1ccccc1)NC(=O)[C@H](CC(=O)O)NC(=O)[C@H](CCC(N)=O)NC(=O)[C@H](C)NC(=O)[C@H](CCCNC(=N)N)NC(=O)[C@H](CCCCNC(=O)COCCOCCNC(=O)COCCOCCNC(=O)CC[C@H](NC(=O)CCCCCCCCCCCCCCCCC(=O)O)C(=O)O)NC(=O)[C@H](CO)NC(=O)[C@H](CCC(=O)O)NC(=O)[C@H](CC(C)C)NC(=O)[C@](C)(Cc1ccccc1)NC(=O)[C@H](CCCCN)NC(=O)[C@H](CO)NC(=O)[C@@H](NC(=O)[C@H](CC(=O)O)NC(=O)[C@H](CO)NC(=O)[C@@H](NC(=O)[C@H](Cc1ccccc1)NC(=O)[C@@H](NC(=O)CNC(=O)[C@H](CCC(N)=O)NC(=O)C(C)(C)NC(=O)[C@@H](N)Cc1c[nH]cn1)[C@@H](C)O)[C@@H](C)O)C(C)C)C(C)C)C(=O)N[C@@H](CC(C)C)C(=O)NC(C)(C)C(=O)N[C@@H](CCC(=O)O)C(=O)O [Peptide 482] (H-H[Aib]QGTFTSDVSK[αMeF]LESK([AEEA-AEEA-γGlu-C18 diacid])RAQDFVQWLL[Aib]E-OH; N-terminus assumed) | 0.691 | 0.19 | 7.2

The next compounds have a lower EC50 [1] than those just listed; values first:

EC50 [1] [nM] | EC50 [2] [nM] | % Relative Potency Ratio [2] | Compound
0.136 | 0.0126 | 21.4 | CC(C)C[C@H](NC(=O)[C@H](Cc1c[nH]c2ccccc12)NC(=O)[C@H](CCC(N)=O)NC(=O)[C@@H](NC(=O)[C@H](Cc1ccccc1)NC(=O)[C@H](CC(=O)O)NC(=O)[C@H](CCCNC(=N)N)NC(=O)[C@H](C)NC(=O)[C@H](CCCNC(=N)N)NC(=O)[C@H](CCCCNC(=O)COCCOCCNC(=O)COCCOCCNC(=O)CC[C@H](NC(=O)CCCCCCCCCCCCCCCCC(=O)O)C(=O)O)NC(=O)[C@@H](NC(=O)[C@H](CC(=O)O)NC(=O)[C@H](CC(C)C)NC(=O)[C@](C)(Cc1ccccc1)NC(=O)[C@H](CCCCN)NC(=O)[C@H](CO)NC(=O)[C@@H](NC(=O)[C@H](CC(=O)O)NC(=O)[C@H](CO)NC(=O)[C@@H](NC(=O)[C@H](Cc1ccccc1)NC(=O)[C@@H](NC(=O)CNC(=O)[C@H](CCC(N)=O)NC(=O)C(C)(C)NC(=O)[C@@H](N)Cc1c[nH]cn1)[C@@H](C)O)[C@@H](C)O)C(C)C)[C@@H](C)O)C(C)C)C(=O)N[C@@H](CC(C)C)C(=O)N[C@@H](CCC(=O)O)C(=O)NC(C)(C)C(=O)N[C@@H](CCCCN)C(N)=O [Peptide 480] (H-H[Aib]QGTFTSDVSK[αMeF]LDTK([AEEA-AEEA-γGlu-C18 diacid])RARDFVQWLLE[Aib]K-NH2; N-terminus assumed)
0.169 | 0.178 | 1.9 | CC(C)C[C@H](NC(=O)[C@H](Cc1c[nH]c2ccccc12)NC(=O)[C@H](CCC(N)=O)NC(=O)[C@@H](NC(=O)[C@H](Cc1ccccc1)NC(=O)[C@H](CC(=O)O)NC(=O)[C@H](CCC(N)=O)NC(=O)[C@H](C)NC(=O)[C@H](CCCNC(=N)N)NC(=O)[C@H](CCCCNC(=O)COCCOCCNC(=O)COCCOCCNC(=O)CC[C@H](NC(=O)CCCCCCCCCCCCCCCCC(=O)O)C(=O)O)NC(=O)[C@@H](NC(=O)[C@H](CC(=O)O)NC(=O)[C@H](CC(C)C)NC(=O)[C@](C)(Cc1ccccc1)NC(=O)[C@H](CCCCN)NC(=O)[C@H](CO)NC(=O)[C@@H](NC(=O)[C@H](CC(=O)O)NC(=O)[C@H](CO)NC(=O)[C@@H](NC(=O)[C@H](Cc1ccccc1)NC(=O)[C@@H](NC(=O)CNC(=O)[C@H](CCC(N)=O)NC(=O)C(C)(C)NC(=O)[C@@H](N)Cc1c[nH]cn1)[C@@H](C)O)[C@@H](C)O)C(C)C)[C@@H](C)O)C(C)C)C(=O)N[C@@H](CC(C)C)C(=O)NC(C)(C)C(=O)N[C@@H](CCC(=O)O)C(=O)O [Peptide 483]
0.169 | 0.339 | 1.0 | CC(C)C[C@H](NC(=O)[C@H](Cc1c[nH]c2ccccc12)NC(=O)[C@H](CCC(N)=O)NC(=O)[C@@H](NC(=O)[C@H](Cc1ccccc1)NC(=O)[C@H](CC(=O)O)NC(=O)[C@H](CCC(N)=O)NC(=O)[C@H](C)NC(=O)[C@H](CCCNC(=N)N)NC(=O)[C@H](CCCCNC(=O)COCCOCCNC(=O)COCCOCCNC(=O)CC[C@H](NC(=O)CCCCCCCCCCCCCCCCCCC(=O)O)C(=O)O)NC(=O)[C@@H](NC(=O)[C@H](CC(=O)O)NC(=O)[C@H](CC(C)C)NC(=O)[C@](C)(Cc1ccccc1)NC(=O)[C@H](CCCCN)NC(=O)[C@H](CO)NC(=O)[C@@H](NC(=O)[C@H](CC(=O)O)NC(=O)[C@H](CO)NC(=O)[C@@H](NC(=O)[C@H](Cc1ccccc1)NC(=O)[C@@H](NC(=O)CNC(=O)[C@H](CCC(N)=O)NC(=O)C(C)(C)NC(=O)[C@@H](N)Cc1c[nH]cn1)[C@@H](C)O)[C@@H](C)O)C(C)C)[C@@H](C)O)C(C)C)C(=O)N[C@@H](CC(C)C)C(=O)NC(C)(C)C(=O)N[C@@H](CCC(=O)O)C(=O)O [Peptide 484] (H-H[Aib]QGTFTSDVSK[αMeF]LDTK([AEEA-AEEA-γGlu-C20 diacid])RAQDFVQWLL[Aib]E-OH; N-terminus assumed)
